Laboratory results reported in PubChem BioAssay AID651895 (Broad Institute, 2012).
Active and inactive are the calls of the source.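 How the source made its calls: active means IC50 under 100 times the reference toxin's IC50 in the same rat muscle cell viability test; inactive means the rest.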

Test system: L-6 rat myoblast viability, Alamar blue, 72 h
Assay: L-6 rat myoblast cytotoxicity, dose response, counter-screen for T. cruzi inhibitor project, cell-based, plate reader, dry powder (AID 651895)

## C[C@@H]1CN([C@@H](C)CO)C(=O)c2cccc(NC(=O)c3ccncc3)c2O[C@H]1CN(C)Cc1ccc(Oc2ccccc2)cc1
  IC50: 14.8 µM (inactive)
